Measurements reported in PubChem BioAssay AID2060897 (Molecular Pharmacology Branch, DTP, NCI, 2025).

Test system: 966289-007-R4-J1-PDC complex spheroid viability
Experiment: Anticancer human tumor 966289-007-R4-J1-PDC patient-derived pancreatic adenocarcinoma cell line growth inhibition [RAS]
Conditions: for IC50: curve of first compound; for viability, T/C: stronger effect = lower value
Procedure, shortened: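 Multi-cell-type spheroids: tumor cells plus HUVEC endothelial cells and mesenchymal stem cells. RAS-pathway inhibitors were combined with targeted agents, each dosed in half-log steps down from clinical Cmax, or from 10 microM when Cmax was unknown.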

[1] = second compound 0.000949 µM, first compound 0.0316 µM
[2] = second compound 0.000949 µM, first compound 0.1 µM
[3] = second compound 0.000949 µM, first compound 0.316 µM
[4] = second compound 0.000949 µM, first compound 1 µM
[5] = second compound 0.000949 µM, first compound 3.16 µM
[6] = second compound 0.000949 µM, first compound 10 µM
[7] = second compound 0.003 µM, first compound 0.0316 µM
[8] = second compound 0.003 µM, first compound 0.1 µM
[9] = second compound 0.003 µM, first compound 0.316 µM
[10] = second compound 0.003 µM, first compound 1 µM
[11] = second compound 0.003 µM, first compound 3.16 µM
[12] = second compound 0.003 µM, first compound 10 µM
[13] = second compound 0.00949 µM, first compound 0.0316 µM
[14] = second compound 0.00949 µM, first compound 0.1 µM
[15] = second compound 0.00949 µM, first compound 0.316 µM
[16] = second compound 0.00949 µM, first compound 1 µM
[17] = second compound 0.00949 µM, first compound 3.16 µM
[18] = second compound 0.00949 µM, first compound 10 µM
[19] = second compound 0.03 µM, first compound 0.0316 µM
[20] = second compound 0.03 µM, first compound 0.1 µM
[21] = second compound 0.03 µM, first compound 0.316 µM
[22] = second compound 0.03 µM, first compound 1 µM
[23] = second compound 0.03 µM, first compound 3.16 µM
[24] = second compound 0.03 µM, first compound 10 µM
[25] = second compound 0.0949 µM, first compound 0.0316 µM
[26] = second compound 0.0949 µM, first compound 0.1 µM
[27] = second compound 0.0949 µM, first compound 0.316 µM
[28] = second compound 0.0949 µM, first compound 1 µM
[29] = second compound 0.0949 µM, first compound 3.16 µM
[30] = second compound 0.0949 µM, first compound 10 µM
[31] = second compound 0.3 µM, first compound 0.0316 µM
[32] = second compound 0.3 µM, first compound 0.1 µM
[33] = second compound 0.3 µM, first compound 0.316 µM
[34] = second compound 0.3 µM, first compound 1 µM
[35] = second compound 0.3 µM, first compound 3.16 µM
[36] = second compound 0.3 µM, first compound 10 µM
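Note: spheroids exposed to agents for one week before readout.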
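Throughout, for viability, T/C: percent viability relative to DMSO vehicle control wells as 100%.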

SMILES: CC(=O)OC12COC1CC(O)C1(C)C(=O)C(O)C3=C(C)C(OC(=O)C(O)C(NC(=O)OC(C)(C)C)c4ccccc4)CC(O)(C(OC(=O)c4ccccc4)C21)C3(C)C (stereo unspecified) + CCn1c(-c2cccnc2C(C)OC)c2c3cc(ccc31)N1CCOC(CC(NC(=O)C(C(C)C)N(C)C(=O)C3(F)CCN(C(=O)C#CC(C)(C)N(C)C)CC3)C(=O)N3CCCC(N3)C(=O)OCC(C)(C)C2)C1
- IC50 (second compound 0.000949 µM): < 0.0316 µM
- IC50 (second compound 0.003 µM): < 0.0316 µM
- IC50 (second compound 0.00949 µM): < 0.0316 µM
- IC50 (second compound 0.03 µM): < 0.0316 µM
- IC50 (second compound 0.0949 µM): < 0.0316 µM
- IC50 (second compound 0.3 µM): < 0.0316 µM
- viability, T/C [1]: 5.96%
- viability, T/C [2]: 11.7%
- viability, T/C [3]: 9.08%
- viability, T/C [4]: 14.2%
- viability, T/C [5]: 38%
- viability, T/C [6]: 61.4%
- viability, T/C [7]: 5.16%
- viability, T/C [8]: 12.8%
- viability, T/C [9]: 11%
- viability, T/C [10]: 16.3%
- viability, T/C [11]: 32.3%
- viability, T/C [12]: 52%
- viability, T/C [13]: 4.31%
- viability, T/C [14]: 11.3%
- viability, T/C [15]: 10.9%
- viability, T/C [16]: 16.3%
- viability, T/C [17]: 25.2%
- viability, T/C [18]: 59.7%
- viability, T/C [19]: 2.88%
- viability, T/C [20]: 3.54%
- viability, T/C [21]: 8.87%
- viability, T/C [22]: 10.5%
- viability, T/C [23]: 20.4%
- viability, T/C [24]: 49.5%
- viability, T/C [25]: 2.26%
- viability, T/C [26]: 4.26%
- viability, T/C [27]: 3.62%
- viability, T/C [28]: 4.99%
- viability, T/C [29]: 16.5%
- viability, T/C [30]: 26.8%
- viability, T/C [31]: 1.97%
- viability, T/C [32]: 3.21%
- viability, T/C [33]: 4.05%
- viability, T/C [34]: 4.51%
- viability, T/C [35]: 7.84%
- viability, T/C [36]: 9.46%

SMILES: CC1(O)CCCC1n1c(=O)c(C(F)F)cc2cnc(NC3CCN(S(C)(=O)=O)CC3)nc21 (stereo unspecified) + CCn1c(-c2cc(N3CCN(C)CC3)cnc2C(C)OC)c2c3cc(ccc31)-c1csc(n1)CC(NC(=O)C1CC1C)C(=O)N1CCCC(N1)C(=O)OCC(C)(C)C2
- IC50 (second compound 0.000949 µM): 0.169 µM
- IC50 (second compound 0.003 µM): 0.12 µM
- IC50 (second compound 0.00949 µM): 0.108 µM
- IC50 (second compound 0.03 µM): 0.0928 µM
- IC50 (second compound 0.0949 µM): 0.096 µM
- IC50 (second compound 0.3 µM): 0.139 µM
- viability, T/C [1]: 148%
- viability, T/C [2]: 63.6%
- viability, T/C [3]: 28.7%
- viability, T/C [4]: 29.1%
- viability, T/C [5]: 26.8%
- viability, T/C [6]: 2.64%
- viability, T/C [7]: 125%
- viability, T/C [8]: 51.6%
- viability, T/C [9]: 27.8%
- viability, T/C [10]: 24.4%
- viability, T/C [11]: 24.8%
- viability, T/C [12]: 3.3%
- viability, T/C [13]: 98.4%
- viability, T/C [14]: 52.7%
- viability, T/C [15]: 22.4%
- viability, T/C [16]: 25.9%
- viability, T/C [17]: 26%
- viability, T/C [18]: 3.14%
- viability, T/C [19]: 85%
- viability, T/C [20]: 48.6%
- viability, T/C [21]: 21.9%
- viability, T/C [22]: 23.7%
- viability, T/C [23]: 25.1%
- viability, T/C [24]: 3%
- viability, T/C [25]: 84.5%
- viability, T/C [26]: 47.4%
- viability, T/C [27]: 25.4%
- viability, T/C [28]: 27.1%
- viability, T/C [29]: 26.6%
- viability, T/C [30]: 2.94%
- viability, T/C [31]: 107%
- viability, T/C [32]: 55.9%
- viability, T/C [33]: 28.7%
- viability, T/C [34]: 25.8%
- viability, T/C [35]: 24.9%
- viability, T/C [36]: 3.18%

SMILES: NC1c2ccccc2OC12CCN(c1cnc3c(N4CCCc5ncccc54)n[nH]c3n1)CC2 (stereo unspecified) + CCn1c(-c2cccnc2C(C)OC)c2c3cc(ccc31)N1CCOC(CC(NC(=O)C(C(C)C)N(C)C(=O)C3(F)CCN(C(=O)C#CC(C)(C)N(C)C)CC3)C(=O)N3CCCC(N3)C(=O)OCC(C)(C)C2)C1
- IC50 (second compound 0.000949 µM): > 10 µM
- IC50 (second compound 0.003 µM): > 10 µM
- IC50 (second compound 0.00949 µM): > 10 µM
- IC50 (second compound 0.03 µM): > 10 µM
- IC50 (second compound 0.0949 µM): > 10 µM
- IC50 (second compound 0.3 µM): > 10 µM
- viability, T/C [1]: 113%
- viability, T/C [2]: 81.5%
- viability, T/C [3]: 109%
- viability, T/C [4]: 69.6%
- viability, T/C [5]: 82.1%
- viability, T/C [6]: 74.5%
- viability, T/C [7]: 113%
- viability, T/C [8]: 59%
- viability, T/C [9]: 102%
- viability, T/C [10]: 63.4%
- viability, T/C [11]: 91.9%
- viability, T/C [12]: 96.9%
- viability, T/C [13]: 92.4%
- viability, T/C [14]: 76.4%
- viability, T/C [15]: 77.6%
- viability, T/C [16]: 88.4%
- viability, T/C [17]: 104%
- viability, T/C [18]: 93.2%
- viability, T/C [19]: 62.7%
- viability, T/C [20]: 73.7%
- viability, T/C [21]: 96.9%
- viability, T/C [22]: 74.3%
- viability, T/C [23]: 104%
- viability, T/C [24]: 94.8%
- viability, T/C [25]: 80.9%
- viability, T/C [26]: 91.1%
- viability, T/C [27]: 128%
- viability, T/C [28]: 91.8%
- viability, T/C [29]: 117%
- viability, T/C [30]: 107%
- viability, T/C [31]: 94.4%
- viability, T/C [32]: 89.3%
- viability, T/C [33]: 96%
- viability, T/C [34]: 103%
- viability, T/C [35]: 147%
- viability, T/C [36]: 91.9%
